Measured values as given in patent US10780090B2, “Heteroaryl compounds useful as inhibitors of SUMO activating enzyme” (Millennium Pharmaceuticals, Inc., priority 2014, dated 2020).

Molecular target: recombinant human SAE enzyme (Homo sapiens (Human), UniProt Q9UBT2)
Assay: SAE HTRF enzyme assay
Format: biochemical
Details: for inhibition at 0.111 µM: read-out: Percent Inhibition; for IC50: class symbols A/B/C
Procedure, shortened: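 Sumoylation of Ubc9-GST by SAE was followed at low ATP (0.5 μM), pH 7.5, 24° C. for 105 min. Product was detected by HTRF with antibody pairs against Flag and GST tags.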

Chain of recombinant human SAE enzyme (Q9UBT2 whole entry): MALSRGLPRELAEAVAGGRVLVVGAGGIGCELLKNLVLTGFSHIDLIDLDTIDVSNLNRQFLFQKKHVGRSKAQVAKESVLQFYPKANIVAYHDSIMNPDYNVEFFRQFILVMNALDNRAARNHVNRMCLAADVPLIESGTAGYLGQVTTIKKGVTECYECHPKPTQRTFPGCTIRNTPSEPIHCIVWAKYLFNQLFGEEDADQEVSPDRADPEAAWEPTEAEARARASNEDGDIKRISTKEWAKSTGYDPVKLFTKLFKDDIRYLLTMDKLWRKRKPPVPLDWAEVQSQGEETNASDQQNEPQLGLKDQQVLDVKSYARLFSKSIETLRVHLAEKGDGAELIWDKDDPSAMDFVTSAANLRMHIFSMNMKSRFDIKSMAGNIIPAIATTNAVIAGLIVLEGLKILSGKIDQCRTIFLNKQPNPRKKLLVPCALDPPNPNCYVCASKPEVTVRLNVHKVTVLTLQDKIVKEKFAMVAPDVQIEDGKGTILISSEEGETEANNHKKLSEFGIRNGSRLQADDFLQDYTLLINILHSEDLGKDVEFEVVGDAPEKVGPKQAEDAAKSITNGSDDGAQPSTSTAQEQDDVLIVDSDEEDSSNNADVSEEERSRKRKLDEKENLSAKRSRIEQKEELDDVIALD
Chain of recombinant human SAE enzyme (Q9UBE0 whole entry partner): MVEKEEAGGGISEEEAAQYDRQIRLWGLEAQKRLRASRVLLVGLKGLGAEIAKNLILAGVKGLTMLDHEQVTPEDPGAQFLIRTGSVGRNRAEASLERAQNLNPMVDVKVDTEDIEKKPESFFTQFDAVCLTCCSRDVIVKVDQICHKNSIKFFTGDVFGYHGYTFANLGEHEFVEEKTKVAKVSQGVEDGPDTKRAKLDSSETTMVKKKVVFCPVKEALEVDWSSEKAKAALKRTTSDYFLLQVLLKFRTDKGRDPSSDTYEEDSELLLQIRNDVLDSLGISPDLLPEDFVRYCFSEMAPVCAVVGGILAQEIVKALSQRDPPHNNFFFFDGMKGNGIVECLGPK

| Structure (SMILES) | inhibition at 0.111 µM (Concentration 0.111 μM) | IC50 | Percent Inhibition (Concentration 0.111 μM) |
| --- | --- | --- | --- |
| NS(=O)(=O)OC[C@H]1C[C@@H](Nc2ncncc2C(=O)c2cc(COc3ccc(Cl)cc3)cs2)C[C@@H]1O [I-163, [(1R,2S,4R)-4-{[5-({4-[(4-chlorophenoxy)methyl]-2-thienyl}carbonyl)pyrimidin-4-yl]amino}-2-hydroxycyclopentyl]methyl sulfamate] | 92% | 10 to 100 nM | – |
| C=C(c1cccc(Br)c1)c1csc(C(=O)c2cncnc2N[C@@H]2C[C@H](COS(N)(=O)=O)[C@@H](O)C2)c1 [I-164, [(1R,2S,4R)-4-{[5-({4-[1-(3-Bromophenyl)vinyl]-2-thienyl}carbonyl)pyrimidin-4-yl]amino)-2-hydroxycyclopentyl]methyl sulfamate] | 92% | 10 to 100 nM | – |
| NS(=O)(=O)OC[C@H]1C[C@@H](Nc2ncncc2C(=O)c2cc(Cc3ccccc3Cl)cs2)C[C@@H]1O [I-165, {(1R,2S,4R)-4-[(5-{[4-(2-chlorobenzyl)-2-thienyl]carbonyl}pyrimidin-4-yl)amino]-2-hydroxycyclopentyl}methyl sulfamate] | 91% | 10 to 100 nM | – |
| NS(=O)(=O)OC[C@H]1C[C@@H](Nc2ncncc2C(=O)c2cc(CN3CCc4ccccc4C3)cs2)C[C@@H]1O [I-167, {(1R,2S,4R)-4-[(5-{[4-(3,4-dihydroisoquinolin-2(1H)-ylmethyl)-2-thienyl]carbonyl}pyrimidin-4-yl)amino]-2-hydroxycyclopentyl}methyl sulfamate] | 89% | 10 to 100 nM | – |
| NS(=O)(=O)OC[C@H]1C[C@@H](Nc2ncncc2C(=O)c2cc(CN3CCc4sccc4C3)cs2)C[C@@H]1O [I-168, {(1R,2S,4R)-4-[(5-{[4-(6,7-dihydrothieno[3,2-c]pyridin-5(4H)-ylmethyl)-2-thienyl]carbonyl}pyrimidin-4-yl)amino]-2-hydroxycyclopentyl}methyl sulfamate] | 90% | 10 to 100 nM | – |
| Cc1ccn(Cc2csc(C(=O)c3cncnc3N[C@@H]3C[C@H](COS(N)(=O)=O)[C@@H](O)C3)c2)c1 [I-170, [(1R,2S,4R)-2-Hydroxy-4-({[5-({4-[(3-methyl-1H-pyrrol-1-yl)methyl]-2-thienyl}carbonyl)pyrimidin-4-yl]amino}cyclopentyl]methyl sulfamate] | – | 10 to 100 nM | 91 |
| Cc1sc(C(=O)c2cncnc2N[C@@H]2C[C@H](COS(N)(=O)=O)[C@@H](O)C2)cc1CN1CCc2cccnc21 [I-171, {(1R,2S,4R)-4-[(5-{[4-(2,3-dihydro-1H-pyrrolo[2,3-b]pyridin-1-ylmethyl)-5-methyl-2-thienyl]carbonyl}pyrimidin-4-yl)amino]-2-hydroxycyclopentyl}methyl sulfamate] | 90% | 10 to 100 nM | – |
| NS(=O)(=O)OC[C@H]1C[C@@H](Nc2ncncc2C(=O)c2cc(CC3=CCSCC3)cs2)C[C@@H]1O [I-173, {(1R,2S,4R)-4-[(5-{[4-(3,6-dihydro-2H-thiopyran-4-ylmethyl)-2-thienyl]carbonyl}pyrimidin-4-yl)amino]-2-hydroxycyclopentyl}methyl sulfamate] | 86% | 10 to 100 nM | – |
| NS(=O)(=O)OC[C@H]1C[C@@H](Nc2ncncc2C(=O)c2cc(Sc3cccc(Cl)c3)c(Cl)s2)C[C@@H]1O [I-175, [(1R,2S,4R)-4-{[5-({5-chloro-4-[(3-chlorophenyl)sulfanyl]-2-thienyl}carbonyl)pyrimidin-4-yl]amino}-2-hydroxycyclopentyl]methyl sulfamate] | 90% | 10 to 100 nM | – |
| NS(=O)(=O)OC[C@H]1C[C@@H](Nc2ncncc2C(=O)c2cc(COc3ccccc3OC(F)(F)F)cs2)C[C@@H]1O [I-176, [(1R,2S,4R)-2-hydroxy-4-({5-[(4-{[2-(trifluoromethoxy)phenoxy]methyl}-2-thienyl)carbonyl]pyrimidin-4-yl}amino)cyclopentyl]methyl sulfamate] | 87% | 10 to 100 nM | – |
| NS(=O)(=O)OC[C@H]1C[C@@H](Nc2ncncc2C(=O)c2cc(CSc3ccccc3)cs2)C[C@@H]1O [I-177, [(1R,2S,4R)-2-hydroxy-4-{[5-({4-[(phenylsulfanyl)methyl]-2-thienyl}carbonyl)pyrimidin-4-yl]amino}cyclopentyl]methyl sulfamate] | 85% | 10 to 100 nM | – |
| NS(=O)(=O)OC[C@H]1C[C@@H](Nc2ncncc2C(=O)c2cc(CCc3ccc(Cl)cc3)cs2)C[C@@H]1O [I-178, [(1R,2S,4R)-4-{[5-({4-[2-(4-chlorophenyl)ethyl]-2-thienyl}carbonyl)pyrimidin-4-yl]amino}-2-hydroxycyclopentyl]methyl sulfamate] | 87% | 10 to 100 nM | – |
| N#Cc1sc(C(=O)c2cncnc2N[C@@H]2C[C@H](COS(N)(=O)=O)[C@@H](O)C2)cc1Cc1cccc(Cl)c1 [I-179, {(1R,2S,4R)-4-[(5-{[4-(3-chlorobenzyl)-5-cyano-2-thienyl]carbonyl}pyrimidin-4-yl)amino]-2-hydroxycyclopentyl}methyl sulfamate] | 86% | 10 to 100 nM | – |
| NS(=O)(=O)OC[C@H]1C[C@@H](Nc2ncncc2C(=O)c2cc(COc3cccc(Cl)c3Cl)cs2)C[C@@H]1O [I-180, [(1R,2S,4R)-4-{[5-({4-[(2,3-dichlorophenoxy)methyl]-2-thienyl}carbonyl)pyrimidin-4-yl]amino}-2-hydroxycyclopentyl]methyl sulfamate] | 84% | 10 to 100 nM | – |
| Cc1sc(C(=O)c2cncnc2N[C@@H]2C[C@H](COS(N)(=O)=O)[C@@H](O)C2)cc1S(=O)(=O)c1cccc(Cl)c1 [I-181, [(1R,2S,4R)-4-{[5-({4-[(3-chlorophenyl)sulfonyl]-5-methyl-2-thienyl}carbonyl)pyrimidin-4-yl]amino}-2-hydroxycyclopentyl]methyl sulfamate] | 82% | 10 to 100 nM | – |
| CCc1ccccc1OCc1csc(C(=O)c2cncnc2N[C@@H]2C[C@H](COS(N)(=O)=O)[C@@H](O)C2)c1 [I-182, [(1R,2S,4R)-4-{[5-({4-[(2-ethylphenoxy)methyl]-2-thienyl}carbonyl)pyrimidin-4-yl]amino}-2-hydroxycyclopentyl]methyl sulfamate] | 82% | 10 to 100 nM | – |
| COc1ccccc1CCc1csc(C(=O)c2cncnc2N[C@@H]2C[C@H](COS(N)(=O)=O)[C@@H](O)C2)c1 [I-183, [(1R,2S,4R)-2-Hydroxy-4-{[5-({4-[2-(2-methoxyphenyl)ethyl]-2-thienyl}carbonyl)pyrimidin-4-yl]amino}cyclopentyl]methyl sulfamate] | 82% | 10 to 100 nM | – |
| NS(=O)(=O)OC[C@H]1C[C@@H](Nc2ncncc2C(=O)c2cc(Cn3ccc4ccc(C(F)(F)F)cc43)cs2)C[C@@H]1O [I-184, [(1R,2S,4R)-2-hydroxy-4-({5-[(4-{[6-(trifluoromethyl)-1H-indol-1-yl]methyl}-2-thienyl)carbonyl]pyrimidin-4-yl}amino)cyclopentyl]methyl sulfamate] | 85% | 10 to 100 nM | – |
| N#Cc1cccc(Cc2csc(C(=O)c3cncnc3N[C@@H]3C[C@H](COS(N)(=O)=O)[C@@H](O)C3)c2)c1 [I-185, {(1R,2S,4R)-4-[(5-{[4-(3-cyanobenzyl)-2-thienyl]carbonyl}pyrimidin-4-yl)amino]-2-hydroxycyclopentyl}methyl sulfamate] | 80% | 10 to 100 nM | – |
